In ChEMBL document CHEMBL1151621, “Correlation of the anticholinesterase and molluscicidal activity of the latex of Euphorbia royleana on the snail Lymnaea acuminata” (1984):

Legend:
Lymnaea [1] = test: Molluscicidal activity against Lymnaea acuminata within 24 hrs; format: functional
Lymnaea [2] = test: In vivo inhibition of acetylcholinesterase from nerve tissue of Lymnaea acuminata at 30 mg/l relative to control; format: functional; design: scale not given: the % may be the effect or the level left
Lymnaea [3] = test: Inhibition of acetylcholinesterase from nerve tissue of Lymnaea acuminata at 0.5 ug w/v relative to control; design: scale not given: the % may be the effect or the level left
Lymnaea [4] = test: Inhibition of acetylcholinesterase from nerve tissue of Lymnaea acuminata at 0.23 ug w/v relative to control; design: scale not given: the % may be the effect or the level left
Lymnaea [5] = test: Inhibition of acetylcholinesterase from nerve tissue of Lymnaea acuminata at 0.75 ug w/v relative to control; design: scale not given: the % may be the effect or the level left
Lymnaea [6] = test: In vivo inhibition of acetylcholinesterase from nerve tissue of Lymnaea acuminata at 27 mg/L relative to control; format: functional; design: scale not given: the % may be the effect or the level left
Lymnaea [7] = test: In vivo inhibition of acetylcholinesterase from nerve tissue of Lymnaea acuminata at 2.5 mg/L relative to control; format: functional; design: scale not given: the % may be the effect or the level left
Lymnaea [8] = test: Inhibition of acetylcholinesterase from nerve tissue of Lymnaea acuminata at 1 ug w/v relative to control; design: scale not given: the % may be the effect or the level left
Lymnaea [9] = test: In vivo inhibition of acetylcholinesterase from nerve tissue of Lymnaea acuminata at 14 mg/L relative to control; format: functional; design: scale not given: the % may be the effect or the level left
Lymnaea [10] = test: Inhibition of acetylcholinesterase from nerve tissue of Lymnaea acuminata at 2 ug w/v relative to control; design: scale not given: the % may be the effect or the level left

O=C(Nc1ccc([N+](=O)[O-])cc1Cl)c1cc(Cl)ccc1O [NICLOSAMIDE]
Activity (Lymnaea [1]): 63%

CCOP(=S)(OCC)SCSCC [PHORATE]
Activity (Lymnaea [2]): 67% | Activity (Lymnaea [3]): 42%

CNC(=O)Oc1ccc2c(c1)[C@]1(C)CCN(C)[C@@H]1N2C
Activity (Lymnaea [4]): 13%

COP(=S)(OC)SCC(=O)N(C)C=O [FORMOTHION]
Activity (Lymnaea [5]): 47% | Activity (Lymnaea [6]): 79%

CNC(=O)Oc1cc(C)c(N(C)C)c(C)c1 [MEXACARBATE]
Activity (Lymnaea [7]): 53% | Activity (Lymnaea [8]): 39%

CNC(=O)Oc1cccc2ccccc12 [CARBARIL]
Activity (Lymnaea [9]): 73% | Activity (Lymnaea [10]): 67%
